# Laboratory results reported in US7598294B2, “3,4-methylenedioxy-substituted chalcones as therapeutic agents” (Spear Therapeutics Limited, priority 2001, dated 2009).
# Where two headings read alike, the source gives them in different places.
# How the values were obtained:
# [1] = system: breast cancer MCF-7 cells; assay: Intrinsic activity of prodrug and hydroxylated metabolite in breast cancer MCF-7 cells; type: cell-based; conditions: Homo sapiens, MCF7; prodrug versus hydroxylated metabolite
# K562 = conditions: antitumour activity; cited from earlier work
# [2] = MCF-7 cell line (non-induced) cytotoxicity assay (MTT); type: cell-based; conditions: human, MCF-7 breast tumour cells, non-induced (no TCDD), non-induced MCF-7 cells
# MCF-10A (Normal Breast) = assay: MCF-10A normal cell line cytotoxicity assay; type: cell-based, human; conditions: Homo sapiens, MCF-10A, read-out: IC50 against the normal cell line
# MDA-468 (Breast Tumor) = assay: MDA-468 tumour cell line cytotoxicity assay; conditions: for Tumor Selectivity Differential Factor: IC50 MCF-10A / IC50 MDA-468, fold more toxic to cancer cells than to normal cells
# Method: MDA-468 Tumour Cell Line Versus MCF-10A Normal Cell Line Assay
# This cell culture based assay is performed using the two cell lines MDA-468 and MCF-10A. The MDA-468 cell line is an advanced breast cancer cell line, whilst the MCF-10A cell line is a normal breast cell line.
# The tumour selectivity differential factor(TSDF) is calculated by dividing the IC50 obtained from the MCF-10A data by the IC50 obtained from the MDA-468 data.
# TCDD-induced MCF-7 cells = assay: TCDD-induced MCF-7 cell line cytotoxicity assay (MTT); conditions: for Tumor Selectivity Differential Factor: IC50 MCF-7 cells / IC50 TCDD-induced MCF-7 cells, fold more toxic to "tumour" cells than to "normal" cells; for IC50: read-out: Cytotoxicity TCDD-induced MCF-7 Cells IC50, 10 nM TCDD for 24 hours, then 96 hours with compound, MTT
# Method: TCDD-Induced MCF-7 Cell Line Versus MCF-7 Cell Line Cytotoxicity Assay
# 1×10^3 cells were plated out in 100 μl medium per well of 96-well flat-bottomed plates (Fisher). […] The medium was then carefully aspirated and 100 μl fresh medium added. […] 50 μl MTT (Thiazol blue, Sigma) at 2 mg/ml in Dulbecco's phosphate buffered saline-A, was then added to each well for 3 hours: All medium was aspirated, then the formazan product generated by viable cells was solubilized with 150 μl DMSO. Plates were vortexed and the absorbance at 540 nm determined using a plate reader. […] All determinations were carried out in at least triplicate.
# [3] = MCF-10A normal cell line cytotoxicity assay; type: cell-based, human; conditions: human, MCF-10A normal breast cells; without TCDD
# [4] = read-out: Cytotoxicity MDA-468 (Breast Tumor) IC50, without TCDD
SMILES,IC50 at 96 h [2],Tumor Selectivity Differential Factor (MDA-468 (Breast Tumor)),Tumor Selectivity Differential Factor (TCDD-induced MCF-7 cells),IC50 (TCDD-induced MCF-7 cells),other results
"COc1cc(OC)cc(C(=O)/C=C/c2ccc(OC)c(O)c2)c1 [(E)-1-(3-Hydroxy-4-methoxyphenyl)-3-(3,5-dimethoxyphenyl) prop-1-en-3-one]",,,,,IC50 [1]: 0.65 nM
"COc1ccc(/C=C/C(=O)c2cc(OC)cc(OC)c2)cc1 [(E)-1-(4-methoxyphenyl)-3-(3,5-dimethoxyphenyl)prop-1-en-3-one]",,,,,IC50 [1]: 690 nM
CC(=O)/C=C/c1ccc(O)cc1 [(E)-1-(4′-hydroxyphenyl)but-1-en-3-one],,,,,IC50 (K562): 60000 nM
"COc1cc(C(=O)/C=C/c2ccc3c(c2)OCO3)cc(OC)c1OC [DMU-135, (E)-1-(3,4-Methylenedioxyphenyl)-3-(3,4,5-trimethoxyphenyl)prop-1-en-3-one]",920 nM,120,65,,"IC50 (MCF-10A (Normal Breast)): 2300 nM; melting point: 135 °C; IC50 (MDA-468 (Breast Tumor); read-out: IC50 against the advanced tumour cell line, MDA-468, FIG. 2): 20 nM"
"COc1cc(OC)cc(C(=O)/C=C/c2ccc3c(c2)OCO3)c1 [DMU-403, (E)-1-(3,4-methylenedioxyphenyl)-3-(3,5-dimethoxyphenyl)prop-1-en-3-one]",3500 nM,,6,570 nM,
"COc1ccc(C(=O)/C=C/c2ccc3c(c2)OCO3)c(OC)c1 [DMU-407, (E)-1-(3,4-methylenedioxyphenyl)-3-(2,4-dimethoxyphenyl)prop-1-en-3-one]",7000 nM,,3,2700 nM,melting point: 137 °C
"COc1ccc(C(=O)/C=C/c2ccc3c(c2)OCO3)c(OC)c1OC [DMU-419, (E)-1-(3,4-methylenedioxyphenyl)-3-(2,3,4-trimethoxyphenyl)prop-1-en-3-one]",2800 nM,,3,840 nM,
"COc1ccc(OC)c(C(=O)/C=C/c2ccc3c(c2)OCO3)c1 [DMU-423, (E)-1-(3,4-methylenedioxyphenyl)-3-(2,5-dimethoxyphenyl)prop-1-en-3-one]",3500 nM,,13,260 nM,melting point: 101 °C
"COc1cccc2c1C(=O)c1c(O)c3c(c(O)c1C2=O)C[C@@](O)(C(=O)CO)C[C@@H]3O[C@H]1C[C@H](N)[C@H](O)[C@H](C)O1 [Doxorubicin, doxorubicin]",,0.1,,,IC50 at 96 h [3]: 0.3 nM; fold more toxic to normal cells than to cancer cells (MDA-468 (Breast Tumor); MCF-10A versus MDA-468): 10 fold; IC50 (MDA-468 (Breast Tumor); [4]): 3 nM
"CN(Cc1cnc2nc(N)nc(N)c2n1)c1ccc(C(=O)N[C@@H](CCC(=O)O)C(=O)O)cc1 [Methotrexate, methotrexate]",,1.5,,,IC50 at 96 h [3]: 60 nM; IC50 (MDA-468 (Breast Tumor); [4]): 40 nM
"CC/C(=C(\c1ccccc1)c1ccc(OCCN(C)C)cc1)c1ccccc1 [Tamoxifen, tamoxifen]",,1.6,,,IC50 at 96 h [3]: 6300 nM; IC50 (MDA-468 (Breast Tumor); [4]): 4000 nM
